Experiments:
L929 = test: Antiproliferative activity against mouse L929 cells after 72 hrs by MTT assay; conditions: L929, 72 h
MCF7 = test: Antiproliferative activity against human MCF7 cells after 72 hrs by MTT assay; format: functional, cell-based; conditions: MCF7, 72 h
HeLa = test: Antiproliferative activity against human HeLa cells after 72 hrs by MTT assay; format: functional, cell-based
A549 = test: cells; conditions: Homo sapiens, A549, 72 h
Description: Antiproliferative activity against human A549 cells after 72 hrs by MTT assay

| SMILES | IC50 (L929) | IC50 (MCF7) | IC50 (HeLa) | IC50 (A549) |
| --- | --- | --- | --- | --- |
| O=C1c2ccccc2C(=O)c2c1nc(-c1cccc3ccccc13)n2CCN1CCOCC1 | 41 µM | 30.1 µM | 19.2 µM | 16.6 µM |
| C[N+]1(CCn2c(-c3ccccn3)nc3c2C(=O)c2ccccc2C3=O)CCOCC1 | 106 µM | 141 µM | 106 µM | 141 µM |
| CCCc1nc2c(n1CCN1CCOCC1)C(=O)c1ccccc1C2=O | 80.3 µM | 95.9 µM | 95.1 µM | 37.4 µM |
| C[N+]1(CCn2c(-c3ccsc3)nc3c2C(=O)c2ccccc2C3=O)CCOCC1 | 133 µM | 133 µM | 160 µM | 115 µM |
| O=C1c2ccccc2C(=O)c2c1nc(C(F)(F)F)n2CCN1CCOCC1 | 16.2 µM | 17.9 µM | 15.1 µM | 15.9 µM |
| CCc1nc2c(n1CCN1CCOCC1)C(=O)c1ccccc1C2=O | 106 µM | 179 µM | 144 µM | 84.9 µM |
| Cc1nc2c(n1CCN1CCOCC1)C(=O)c1ccccc1C2=O | 118 µM | > 200 µM | > 200 µM | 105 µM |
| O=C1c2ccccc2C(=O)c2c1nc(C1CCCCC1)n2CCN1CCOCC1 | 80.3 µM | > 200 µM | > 200 µM | 76.4 µM |
| c1c2ncn(CCN3CCOCC3)c2cc2ncn(CCN3CCOCC3)c12 | > 200 µM | > 200 µM | > 200 µM | > 200 µM |
| O=C1c2ccccc2C(=O)c2c1nc(-c1ccncc1)n2CCN1CCOCC1 | 116 µM | 140 µM | 153 µM | 120 µM |
| O=C1c2ccccc2C(=O)c2c1nc(/C=C/c1ccccc1)n2CCN1CCOCC1 | 120 µM | 58.3 µM | 82.1 µM | 76.9 µM |
| O=C1c2ccccc2C(=O)c2c1nc(-c1cccnc1)n2CCN1CCOCC1 | 44.6 µM | 167 µM | 109 µM | 37.8 µM |
| C[N+]1(CCn2c(C(F)(F)F)nc3c2C(=O)c2ccccc2C3=O)CCOCC1 | > 200 µM | 139 µM | 116 µM | 93.5 µM |
| CC(C)Cc1nc2c(n1CCN1CCOCC1)C(=O)c1ccccc1C2=O | 157 µM | > 200 µM | 180 µM | 25.9 µM |
| O=C1c2ccccc2C(=O)c2c1nc(-c1ccc(Cl)c(C(F)(F)F)c1)n2CCN1CCOCC1 | 111 µM | 140 µM | 119 µM | 45.2 µM |
| O=C1c2ccccc2C(=O)c2c1nc(-c1ccc(F)c(Cl)c1)n2CCN1CCOCC1 | 44.3 µM | 48.4 µM | 52.5 µM | 31.2 µM |
| Cc1ccc(CCc2nc3c(n2CCN2CCOCC2)C(=O)c2ccccc2C3=O)o1 | 96.2 µM | 166 µM | 88.2 µM | 72.8 µM |
| O=C1c2ccccc2C(=O)c2c1nc(-c1cccs1)n2CCN1CCOCC1 | 177 µM | 137 µM | 173 µM | 91.9 µM |
| Cc1cc2ncn(CCN3CCOCC3)c2cc1C | 187 µM | 181 µM | > 200 µM | 112 µM |
| COc1ccc(-c2nc3c(n2CC[N+]2(C)CCOCC2)C(=O)c2ccccc2C3=O)cc1Cl | > 200 µM | > 200 µM | 97.5 µM | 174 µM |
| O=C1c2ccccc2C(=O)c2c1nc(-c1cccc(C(F)(F)F)c1)n2CCN1CCOCC1 | 72.5 µM | 134 µM | 185 µM | 33.3 µM |
| O=C1c2ccccc2C(=O)c2c1nc(-c1ccccc1)n2CCN1CCOCC1 | 40.6 µM | 70.1 µM | 61.4 µM | 24.5 µM |

| SMILES | IC50 (L929) | IC50 (MCF7) | IC50 (HeLa) | IC50 (A549) |
| --- | --- | --- | --- | --- |
| O=C1c2ccccc2C(=O)c2c1nc(-c1ccco1)n2CCN1CCOCC1 | 175 µM | 169 µM | 191 µM | 147 µM |
| CC(C)(C)c1nc2c(n1CCN1CCOCC1)C(=O)c1ccccc1C2=O | 86 µM | 150 µM | 88.2 µM | 21.8 µM |
| O=C1c2ccccc2C(=O)c2c1nc(-c1ccccn1)n2CCN1CCOCC1 | 118 µM | 37.7 µM | 105 µM | 32.2 µM |
| O=C1c2ccccc2C(=O)c2c1nc(C1CC1)n2CCN1CCOCC1 | 40 µM | 64.7 µM | 61.2 µM | 36 µM |
| CCCCc1nc2c(n1CCN1CCOCC1)C(=O)c1ccccc1C2=O | > 200 µM | 113 µM | 166 µM | 107 µM |
| O=C1c2ccccc2C(=O)c2c1nc(-c1cnccn1)n2CCN1CCOCC1 | 49.6 µM | 53.5 µM | 79.1 µM | 78.3 µM |
| C[N+]1(CCn2c(-c3ccccc3)nc3c2C(=O)c2ccccc2C3=O)CCOCC1 | > 200 µM | 184 µM | > 200 µM | > 200 µM |
| O=C1c2ccccc2C(=O)c2c1nc(-c1cccc(F)c1)n2CCN1CCOCC1 | 131 µM | 106 µM | 133 µM | 87 µM |
| O=C1c2ccccc2C(=O)c2c1nc(-c1ccc(-c3nc4c(n3CCN3CCOCC3)C(=O)c3ccccc3C4=O)cc1)n2CCN1CCOCC1 | 121 µM | 39.1 µM | 79.2 µM | 63.4 µM |
| C[N+]1(CCn2c(-c3cccc(F)c3)nc3c2C(=O)c2ccccc2C3=O)CCOCC1 | > 200 µM | 166 µM | 166 µM | 166 µM |
| O=C1c2ccccc2C(=O)c2c1nc(C1CCC1)n2CCN1CCOCC1 | 84.9 µM | 105 µM | 99.3 µM | 73 µM |
| CC(C)c1ccc(CC(C)c2nc3c(n2CCN2CCOCC2)C(=O)c2ccccc2C3=O)cc1 (configuration not stated) | > 200 µM | 110 µM | 122 µM | > 200 µM |
| Cc1ccccc1-c1nc2c(n1CCN1CCOCC1)C(=O)c1ccccc1C2=O | 80.2 µM | 116 µM | 121 µM | 23.6 µM |
| CCC(CC)c1nc2c(n1CCN1CCOCC1)C(=O)c1ccccc1C2=O | 79.4 µM | 108 µM | 95.9 µM | 57.3 µM |
| O=C1C(Cl)=C(NCCN2CCOCC2)C(=O)c2nccnc21 | 149 µM | > 200 µM | > 200 µM | 158 µM |
| CC(C)c1ccc(-c2nc3c(n2CCN2CCOCC2)C(=O)c2ccccc2C3=O)cc1 | 71.9 µM | 106 µM | 99.8 µM | 70 µM |
| COc1ccc(-c2nc3c(n2CCN2CCOCC2)C(=O)c2ccccc2C3=O)cc1 | 101 µM | 86.9 µM | 112 µM | 84.5 µM |
| CCC(C)c1nc2c(n1CCN1CCOCC1)C(=O)c1ccccc1C2=O (configuration not stated) | 100 µM | 123 µM | > 200 µM | 175 µM |
| CC(C)c1nc2c(n1CCN1CCOCC1)C(=O)c1ccccc1C2=O | 79.8 µM | 123 µM | 125 µM | 32.5 µM |
| COc1ccc(-c2nc3c(n2CCN2CCOCC2)C(=O)c2ccccc2C3=O)cc1Cl | 67.3 µM | 10.6 µM | 8.3 µM | 4.3 µM |
| O=C1c2ccccc2C(=O)c2c1nc(-c1ccsc1)n2CCN1CCOCC1 | 122 µM | 115 µM | 136 µM | 20.9 µM |

From ChEMBL document CHEMBL4118258, “2-Substituted-1-(2-morpholinoethyl)-1H-naphtho[2,3-d]imidazole-4,9-diones: Design, synthesis and antiproliferative activity” (Bioorg Med Chem Lett, 2018)
